Data on two molecules can be found in ChEMBL document CHEMBL3632557, “Ethynylphenyl carbonates and carbamates as dual-action acetylcholinesterase inhibitors and anti-inflammatory agents” (Bioorg Med Chem Lett, 2015).

The target of this assay is Acetylcholinesterase (Electrophorus electricus, UniProt O42275).
Chain of Acetylcholinesterase (O42275 whole entry): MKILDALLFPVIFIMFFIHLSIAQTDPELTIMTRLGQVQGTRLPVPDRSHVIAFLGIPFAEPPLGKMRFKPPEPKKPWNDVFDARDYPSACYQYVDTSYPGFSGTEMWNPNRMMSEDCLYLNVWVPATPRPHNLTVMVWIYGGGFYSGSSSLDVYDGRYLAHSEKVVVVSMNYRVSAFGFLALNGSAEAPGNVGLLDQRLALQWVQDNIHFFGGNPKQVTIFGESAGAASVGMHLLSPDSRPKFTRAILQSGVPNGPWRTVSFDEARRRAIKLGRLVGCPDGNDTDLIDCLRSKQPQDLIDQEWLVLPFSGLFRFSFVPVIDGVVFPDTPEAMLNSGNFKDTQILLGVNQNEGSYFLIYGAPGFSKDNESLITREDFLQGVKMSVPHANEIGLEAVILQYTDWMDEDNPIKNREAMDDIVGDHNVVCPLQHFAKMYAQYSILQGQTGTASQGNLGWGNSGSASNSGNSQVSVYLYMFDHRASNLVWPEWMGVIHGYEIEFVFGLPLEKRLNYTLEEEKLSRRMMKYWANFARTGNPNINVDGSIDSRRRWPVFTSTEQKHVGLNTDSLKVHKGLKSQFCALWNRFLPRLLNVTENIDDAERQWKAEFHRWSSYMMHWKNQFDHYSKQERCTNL

Description: Inhibition of Electrophorus electricus acetylcholinesterase using acetylthiocholineiodide as substrate measured at 30 secs intervals over 9 mins by Ellman's colorimetric assay

As to `C#Cc1ccc(OC(=O)OCCC(C)(C)C)cc1`, the half-inhibitory concentration (IC50) was 59 µM.
Molecule `C#Cc1ccc(NC(=O)OCC[Si](C)(C)C)cc1` displayed an IC50 of 34.4 µM.
